# Molecular target: T1, B-N-acetylhexosaminidase (Streptomyces plicatus, UniProt O85361)
# T1 sequence (O85361 whole entry): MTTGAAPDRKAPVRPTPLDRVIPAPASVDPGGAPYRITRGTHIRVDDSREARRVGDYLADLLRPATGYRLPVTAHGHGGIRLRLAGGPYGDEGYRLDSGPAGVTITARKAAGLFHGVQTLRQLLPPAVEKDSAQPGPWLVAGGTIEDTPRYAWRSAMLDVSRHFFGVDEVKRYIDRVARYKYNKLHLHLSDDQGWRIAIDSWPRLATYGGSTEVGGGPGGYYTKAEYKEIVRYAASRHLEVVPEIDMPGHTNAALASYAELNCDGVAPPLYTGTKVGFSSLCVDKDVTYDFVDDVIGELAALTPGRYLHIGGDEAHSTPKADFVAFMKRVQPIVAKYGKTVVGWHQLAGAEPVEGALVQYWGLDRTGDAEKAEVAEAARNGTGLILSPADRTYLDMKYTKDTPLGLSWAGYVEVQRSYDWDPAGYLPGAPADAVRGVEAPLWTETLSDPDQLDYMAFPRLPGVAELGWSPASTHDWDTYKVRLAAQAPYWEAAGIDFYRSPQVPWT
# Test: Inhibition of Streptomyces plicatus N-acetyl-hexosaminidase
row,Ki [µM],SMILES
1,> 2000,CC1=N[C@@H]2[C@@H](O)[C@@H](O)[C@@H](CO)O[C@]2(CNC(=O)OC(C)(C)C)S1
2,20,CC1=N[C@@H]2[C@@H](O)[C@H](O)[C@@H](CO)O[C@@H]2S1
3,> 2000,CC1=N[C@@H]2[C@@H](O)[C@@H](O)[C@@H](CO)O[C@]2(CN)S1
4,100,CC1=N[C@@H]2[C@@H](O)[C@@H](O)[C@@H](CO)O[C@@H]2S1
5,200,CC1=N[C@@H]2[C@@H](O)[C@H](O)[C@@H](CO)O[C@]2(C)S1
6,1600,Cc1nc2c(s1)O[C@H](CO)[C@H](O)[C@@H]2O
7,21,"CC(=O)NC1NC[C@H](CO)[C@H](O)[C@@H]1O (single isomer, unassigned)"

# Reference: ChEMBL document CHEMBL1145610, “N-Acetylhexosaminidase inhibitory properties of C-1 homologated GlcNAc- and GalNAc-thiazolines” (Bioorg Med Chem Lett, 2008)
